Earlier results in patent US11607623B2, “Dynamic interface system and its application in supercritical fluid extraction and chromatography” (CORNERSTONE TECHNOLOGIES LLC, priority 2019, dated 2023).

Compound | solubility in SC-CO2, change with temperature (pressures of 220-240 bar, temperature raised from 42° C. to 72° C.) | molar solubility in SC-CO2, course across temperature (220-240 bar, across the 42-72° C. temperature ranges) | solubility in SC-CO2 at 54° C. relative to 41° C. or 61° C. (lower pressures 160-180 bar)
CCCCCc1cc(O)c2c(c1)OC(C)(C)[C@@H]1CCC(C)=C[C@@H]21 [THC, delta-9-tetrahydrocannabinol] | two-fold increase | – | –
CCCCCc1cc(O)c2c(c1)OC(C)(C)c1ccc(C)cc1-2 [CBN, cannabinol] | – | inverted-U curve | two-fold greater
